# In patent US20060030536A1, “Combination therapies for cancer and proliferative angiopathies” (University of South Florida, priority 2004, published 2006):
# Legend:
# [1] = test system: PI3k/Akt or Mek/Erk pathways; conditions: cited from earlier work
# [2] = molecular target: Stat3 (Homo sapiens, UniProt P40763); conditions: cited from earlier work
# [3] = test system: MDA-MB-468 and MDA-MB453 cells; assay: Flow cytometry cell cycle analysis; type: cell-based, human; conditions: 20 μM LY294002, 0.05 μM JSI-124, 48 h
# Method: MDA-453 cells were treated with vehicle DMSO (control), 20 μM LY294002; 0.05 μM JSI-124 or 20+0.05 μM LY294002+JSI-124 for 48 h, followed by flow cytometry analysis.
# Cell cycle analysis based on DNA content was performed as we described previously. At each time point, cells were harvested, counted, and washed twice with wash buffer (1 mg glucose per ml PBS). Cells (2×10^6) were suspended in 0.5 ml PBS, fixed in 5 ml of 70% ethanol for over night at −20° C., centrifuged, washed once with PBS and resuspended again in 1 ml of propidium iodide staining solution (50 jig propidium iodide, 100 units RNase A and 1 mg glucose per ml PBS), and incubated at room temperature in the dark for 30 min. The cells were then analyzed with FACScan (Becton Dickinson Immunocytometry, Calif.), ModFit LT and WinMDI V.2.8 cell cycle analysis software (Verity Software; Topsham, Me.). The cell cycle distribution is shown as the percentage of cells containing G1, S, G2, and M DNA judged by propidium iodide staining.
# To determine the effect of combination treatment on cell cycle changes, MDA-MB-468 and MDA-MB453 cells were treated with the indicated concentrations of LY294002, JSI-124 or their combinations for 48 h, followed by flow cytometry analysis.
# [4] = test system: Jak2; conditions: cited from earlier work
# [5] = test system: MDA-MB-468 cells; assay: TUNEL assay (apoptosis); type: cell-based, human; conditions: single agents: 20 μM LY294002; 0.1 or 0.05 μM JSI-124; 48 h
# Method: The assay was performed following manufacturer's instruction using the APO-Direct kit. […] After removing the DNA labeling solution by rinsing cells with Rinsing Buffer, the cells were incubated with the Propidium Iodide/RNase A solution, incubated for 30 min at room temperature in the dark, and then analyzed by flow cytometry within 3 h of staining.
# [6] = test system: MDA-MB-468 cells; assay: Trypan blue dye exclusion assay (cell death); type: cell-based, human; conditions: 48 h
# Method: MDA-MB-468 cells were treated with vehicle DMSO (control), 10 or 20 μM LY294002; 0.05 EM JSI-124; 10+0.05 μM LY294002+JSI-124; or 20+0.05 μM LY294002+JSI-124 for 48 h, followed by trypan blue dye exclusion assay. The numbers indicate the percentage of dead cells. Standard deviations are shown with error bars.
# The trypan blue dye exclusion assay was performed by mixing 20 μl of cell suspension with 20 μl of 0.4% trypan blue dye before injecting into a hemocytometer and counting. The number of cells that absorbed the dye and those that exclude the dye were counted, from which the percentage of nonviable cell number to total cell number was calculated.
# To determine whether the combination treatment is more beneficial than single agent treatment to induce breast cancer cell death, MDA-MB-468 cells were treated with the indicated concentrations of either drug alone or in combinations for 48 h, followed by trypan blue dye incorporation assays.
# [7] = test system: Stat3; assay: EMSA of Stat3 DNA-binding activity in nuclear extracts; type: cell-based, human; conditions: for Stat3 DNA-binding activity: A2058 (also A2056) human melanoma cells
# Method: Nuclear extracts (1-8 μg of total protein) were incubated with the ^32P-radiolabled hSEE (high-affinity Sis-Inducible Element) oligonucleotide probe. Protein-DNA complexes were resolved by 5% non-denatured polyacrylamide gel electrophoresis (PAGE) and specific STAT/DNA complexes were detected by autoradiography.
# [8] = test system: HIF-1α; assay: Western blot of HIF-1α protein in tumor cells; type: cell-based, human; conditions: for HIF-1α protein level: A2058 (also A2056) human melanoma cells, constitutively active c-Src
# [9] = test system: VEGF; assay: Western blot of VEGF protein in tumor cells; type: cell-based, human
# From the text: […] Fifty […] of nuclear or whole-cell extracts was used for Western blot analysis. HIF-1α rabbit polyclonal antibody (H-206) (1:500 dilution), HIF-1β mouse monoclonal antibody (1:1,500 dilution), AKT1 mouse monoclonal, anti-phospho-AKT rabbit polyclonal, anti-VEGF monoclonal antibody (1:1,000 dilution) were used for the Western blot analyses. Horseradish peroxidase-conjugated sheep anti-mouse and donkey anti-rabbit or anti-goat secondary antibodies were used at 1:2,000 and 1:5,000 dilutions, respectively. The signal was developed with SuperSignal West Pico Chemiluminescent Substrate (PIERCE).
# [10] = test system: AKT1 mRNA; assay: Microarray gene expression database, AKT1 mRNA; type: cell-based; conditions: MDA-MB435 human breast cancer cell line
# [11] = EGF stimulation, DU145 human prostate cancer cells (data not shown)
# Stat3 (Homo sapiens, UniProt P40763), sequence (P40763 whole entry): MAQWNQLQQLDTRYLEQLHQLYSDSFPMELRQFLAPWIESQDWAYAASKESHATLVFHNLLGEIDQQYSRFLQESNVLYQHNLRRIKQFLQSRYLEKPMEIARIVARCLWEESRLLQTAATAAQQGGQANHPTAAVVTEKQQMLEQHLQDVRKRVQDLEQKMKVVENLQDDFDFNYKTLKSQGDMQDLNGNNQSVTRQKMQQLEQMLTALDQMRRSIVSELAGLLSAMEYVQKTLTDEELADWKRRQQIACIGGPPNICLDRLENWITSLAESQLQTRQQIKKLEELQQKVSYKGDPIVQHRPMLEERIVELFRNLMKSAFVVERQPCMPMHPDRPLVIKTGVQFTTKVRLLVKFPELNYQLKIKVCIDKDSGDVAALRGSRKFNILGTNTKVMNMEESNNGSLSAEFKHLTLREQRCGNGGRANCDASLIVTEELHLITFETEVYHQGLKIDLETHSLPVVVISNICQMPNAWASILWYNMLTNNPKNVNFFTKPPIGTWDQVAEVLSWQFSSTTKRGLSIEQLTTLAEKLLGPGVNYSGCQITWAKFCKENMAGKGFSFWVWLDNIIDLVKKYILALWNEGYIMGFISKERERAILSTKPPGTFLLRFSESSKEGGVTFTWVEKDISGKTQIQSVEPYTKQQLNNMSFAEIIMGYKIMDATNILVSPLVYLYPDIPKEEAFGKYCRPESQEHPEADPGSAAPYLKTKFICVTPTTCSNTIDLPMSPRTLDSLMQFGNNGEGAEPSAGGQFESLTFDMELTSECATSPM
compound,measurement,setting,value
"CC(C)(O)/C=C/C(=O)[C@](C)(O)C1[C@H](O)C[C@@]2(C)C3CC=C4C(C=C(O)C(=O)C4(C)C)[C@]3(C)C(=O)C[C@]12C (some centres unmarked) [JSI-124, Cucurbitacin I]",inhibition of PI3k/Akt or Mek/Erk pathways,[1],does not inhibit the PI3k/Akt or Mek/Erk pathways
same,Stat3 activation,[2],suppress both Stat3 and Jak2 activation
same,accumulation in G0/G1 phase,[3],not either single drug treatment
same,Jak2 activation,[4],suppress both Stat3 and Jak2 activation
same,apoptosis induction,[5],Little apoptosis induction
same,cell death,[6]; 0.05 μM JSI-124 alone,7%
CCN(CC)CCOc1ccc(Nc2ncc3cc(-c4c(Cl)cccc4Cl)c(=O)n(C)c3n2)cc1 [PD166285],Stat3 DNA-binding activity,[7],parallel reduction in Stat3 DNA-binding activity
same,HIF-1α protein level,[8],dose-dependent reduction in HIF-1α protein level
CCC(O)[NH+]1CC[NH+](C(O)CC)CC1.[Cl][Pt-2]([Cl])([Cl])([Cl])([Cl])[Cl] (centres unmarked) [IS3 295],Stat3 activity (DNA-binding),[7]; DU145 prostate cancer cells,reduction in Stat3 activity in a dose-dependent manner
same,HIF-1α expression,[8]; DU145 tumor cells,reduction in the expression of both HIF-1α and VEGF
same,VEGF expression,[9]; DU145 tumor cells,reduction in the expression of both HIF-1α and VEGF
Cucurbitacin Q,Stat3 activation,[2],suppress Stat3 activation
same,Jak2 activation,[4],not Jak2 activation
"O=c1cc(N2CCOCC2)oc2c(-c3ccccc3)cccc12 [LY294002, 2-(4-morpholinyl)-8-phenyl-4H-1-benzopyran-4-one]",accumulation in G0/G1 phase,[3],not either single drug treatment
same,apoptosis induction,[5],Little apoptosis induction
same,cell death,[6]; 20 μM LY294002 alone,14%
"Stat3 antisense oligonucleotide: antisense nucleic acid 5′-AAAAAGTGCCCAGATTGCCC-3′ used to knock down Stat3 expression (listed as DNA, chemistry not given here)",HIF-1α upregulation,[8]; [11],required for both HIF-1α and VEGF upregulation by EGF stimulation
same,VEGF upregulation,[9]; [11],required for both HIF-1α and VEGF upregulation by EGF stimulation
same,AKT1 mRNA expression,[10],reduction in AKT1 mRNA expression
CC(=O)OC(C)(C)/C=C/C(=O)[C@](C)(O)[C@H]1[C@H](O)C[C@@]2(C)[C@@H]3CC=C4[C@@H](C=C(O)C(=O)C4(C)C)[C@]3(C)C(=O)C[C@]12C [Cucurbitacin E],Stat3 activation,[2],suppress both Stat3 and Jak2 activation
same,Jak2 activation,[4],suppress both Stat3 and Jak2 activation
Cc1cc(Nc2ncc3cc(-c4c(Cl)cccc4Cl)c(=O)n(C)c3n2)ccc1F [PD180970],Stat3 DNA-binding activity,[7],parallel reduction in Stat3 DNA-binding activity
same,HIF-1α protein level,[8],dose-dependent reduction in HIF-1α protein level
C[C@@H]1C[C@@H]([C@H](O)CC2CC(=O)NC(=O)C2)C(=O)[C@@H](C)C1 [cycloheximide],IL-6-induced HIF-1α expression,"[8]; MCF-7 cells, 20 ng/ml IL-6, protein synthesis blocked",attenuation of HIF-1α expression
CC(=O)OC(C)(C)/C=C/C(=O)[C@](C)(O)[C@H]1[C@H](O)C[C@@]2(C)[C@@H]3CC=C4[C@H](C[C@H](O)C(=O)C4(C)C)[C@]3(C)C(=O)C[C@]12C [Cucurbitacin B],Stat3 activation,[2],suppress both Stat3 and Jak2 activation
same,Jak2 activation,[4],suppress both Stat3 and Jak2 activation
heregulin,activated Stat3,"[7]; MCF-7 cells, heregulin at 100 ng/ml",detectable levels of activated Stat3
same,HIF-1α expression,"[8]; MCF-7 cells, heregulin",induces HIF-1α expression
same,VEGF expression,"[9]; control MCF-7 cells, heregulin",upregulates VEGF expression
